According to PubChem BioAssay AID1963852 (Molecular Pharmacology Branch, DTP, NCI, 2024):

Tested on: 282377-053-R-J1-PDC complex spheroid viability
Assay: Anticancer human tumor 282377-053-R-J1-PDC patient-derived colon adenocarcinoma cell line growth inhibition [POLQ]
Conditions: for IC50: curve of first compound; for viability, T/C: stronger effect = lower value; active means viability on the fitted dose curve at most 10% of control; inactive means the rest
Description: Multicellular complex tumor spheroid response to Polymerase (POL) inhibitors (novobiocin, ART-558, RP6685) in combination with a variety of drugs and investigational agents in selected tumor cell lines
The POL inhibitors (novobiocin, ART-558, and RP6685) were evaluated both individually and in combination with standard of care and investigational anticancer small molecules within a complex spheroid model of solid tumors. . Complex spheroids include a stromal component modeled by human endothelial cells (HUVEC) and fibroblasts modeled by human mesenchymal stem cells (MSCs). The concentration ranges selected for each drug and investigational agent were based upon clinically achievable concentrations if the clinical Cmax of the agent was known.
Compounds. The drugs and investigational agents: novobiocin (NSC847541), ART-558 (NSC835418), RP-6685 (NSC848927), peposertib (NSC802822), ceralasertib (NSC780249), elimusertib (NSC800525), camonsertib (NSC841442), AZD-1390 (NSC803789), olaparib (NSC753686), talazoparib (NSC767125), rucaparib (NSC756644), sotorasib (NSC818433), MRTX-1133 (NSC836407), SN-38 (NSC673596), topotecan (NSC609699), epotoside (NSC141540), doxorubicin (NSC123127), gemcitabine (NSC613327), 5-fluorouracil (NSC19893), paclitaxel (NSC125973), vemurafenib (NSC761431), MSA-2 (NSC828583), SN-011 (NSC837082), adavosertib (NSC754352), prexasertib (NSC758257), carboplatin (NSC241240) and oxaliplatin (NSC266046), were obtained from the National Cancer Institute (NCI) Developmental Therapeutics Program Chemical Repository (21). The FDA-approved anticancer drug set is available from the Developmental Therapeutics Program at https://dtp.cancer.gov/organization/dscb/obtaining/. […] The stock solutions were prepared in dimethyl sulfoxide (DMSO, Sigma-Aldrich, St. Louis, MO, cat. D2650), except for the platinum compounds which were prepared in saline (Quality Biological, Gaithersburg, MD, cat. 114-055-101), at 800-fold the tested concentration and stored at -70 degrees C prior to their use. All drugs and investigational agents were tested over a range starting from a high concentration at or near the clinical Cmax and decreasing in half-log increments. If the clinical Cmax for an agent had not been determined, the highest concentration tested was 10 microM, except for SN-38, which was tested at a high concentration of 1 microM.
Cell Culture. All cells were maintained in an incubator at 37 degrees C and 5% CO2 with 95% humidity. The PDC lines were cultured according to standard operating procedures established by the NCI PDMR (https://pdmr.cancer.gov). Table 3 of the manuscript, lists the cell lines along with the number of the three cell types plated to form the mct-spheroids and media for tumor cell growth. After thawing, all PDC lines, except 997537-175-T-J1-PDC and 415267-285-R-J2-PDC, were cultured in Matrigel-coated flasks prepared with a working solution of 1X Ham's F-12 nutrient mix, without supplementation (Thermo Fisher Scientific, cat. 11765054), 100 U/mL penicillin-streptomycin (Thermo Fisher Scientific, cat. 15140122), and 2.5% Matrigel (Corning Inc., Corning, NY, cat. 354248) for the first three passages. The two PDC lines 997537-175-T-J1-PDC and 415267-285-R-J2-PDC were cultured on uncoated flasks. The 857933-349-R-J2-PDC line was cultured in 6C/Colon 1B media containing advanced DMEM/F-12 (Thermo Fisher Scientific, cat. 12634028), 10 mM HEPES (Thermo Fisher Scientific, cat. 15630080), 1X GlutaMAX supplement (Thermo Fisher Scientific, cat. 35050061), 0.1 mg/mL primocin (InvivoGen, San Diego, CA, cat. ant-pm-2), 10% defined fetal bovine serum, heat inactivated (HyClone Laboratories Inc., Logan, UT, cat. SH30070.03HI), 50% L-WRN conditioned media (ATCC, cat. CRL-3276), 1.25 mM N-Acetyl-L-cysteine (Sigma-Aldrich, cat. A9165), 10 mM nicotinamide (Sigma-Aldrich, cat. N0636), 1X B-27 supplement (Thermo Fisher Scientific, cat. 17504044), 1X N-2 supplement (Thermo Fisher Scientific, cat. […]

[1] = second compound 0.0316 µM, first compound 0.0316 µM
[2] = second compound 0.0316 µM, first compound 0.1 µM
[3] = second compound 0.1 µM, first compound 0.0316 µM
[4] = second compound 0.1 µM, first compound 0.1 µM
[5] = second compound 0.316 µM, first compound 0.0316 µM
[6] = second compound 0.316 µM, first compound 0.1 µM
[7] = second compound 1 µM, first compound 0.0316 µM
[8] = second compound 1 µM, first compound 0.1 µM
[9] = second compound 3.16 µM, first compound 0.0316 µM
[10] = second compound 3.16 µM, first compound 0.1 µM
[11] = second compound 10 µM, first compound 0.0316 µM
[12] = second compound 10 µM, first compound 0.1 µM
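Further: spheroids exposed to compounds for seven days.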

CC[C@@]1(O)C(=O)OCc2c1cc1n(c2=O)Cc2cc3c(CN(C)C)c(O)ccc3nc2-1 + COC1C(OC(N)=O)C(O)C(Oc2ccc3c(O)c(NC(=O)c4ccc(O)c(CC=C(C)C)c4)c(=O)oc3c2C)OC1(C)C
inactive: viability, T/C (second compound 0.0316 µM, first compound 0.000316 µM) 120% | viability, T/C (second compound 0.0316 µM, first compound 0.001 µM) 114% | viability, T/C (second compound 0.0316 µM, first compound 0.00316 µM) 119% | viability, T/C (second compound 0.0316 µM, first compound 0.01 µM) 99.6% | viability, T/C [1] 112% | viability, T/C [2] 72% | viability, T/C (second compound 0.1 µM, first compound 0.000316 µM) 130% | viability, T/C (second compound 0.1 µM, first compound 0.001 µM) 106% | viability, T/C (second compound 0.1 µM, first compound 0.00316 µM) 116% | viability, T/C (second compound 0.1 µM, first compound 0.01 µM) 115% | viability, T/C [3] 106% | viability, T/C [4] 64.6% | viability, T/C (second compound 0.316 µM, first compound 0.000316 µM) 106% | viability, T/C (second compound 0.316 µM, first compound 0.001 µM) 105% | viability, T/C (second compound 0.316 µM, first compound 0.00316 µM) 85.3% | viability, T/C (second compound 0.316 µM, first compound 0.01 µM) 100% | viability, T/C [5] 110% | viability, T/C [6] 69.3% | viability, T/C (second compound 1 µM, first compound 0.000316 µM) 101% | viability, T/C (second compound 1 µM, first compound 0.001 µM) 112% | viability, T/C (second compound 1 µM, first compound 0.00316 µM) 131% | viability, T/C (second compound 1 µM, first compound 0.01 µM) 91.2% | viability, T/C [7] 91.8% | viability, T/C [8] 70.5% | viability, T/C (second compound 3.16 µM, first compound 0.000316 µM) 102% | viability, T/C (second compound 3.16 µM, first compound 0.001 µM) 105% | viability, T/C (second compound 3.16 µM, first compound 0.00316 µM) 97.5% | viability, T/C (second compound 3.16 µM, first compound 0.01 µM) 123% | viability, T/C [9] 111% | viability, T/C [10] 58.5% | viability, T/C (second compound 10 µM, first compound 0.000316 µM) 112% | viability, T/C (second compound 10 µM, first compound 0.001 µM) 110% | viability, T/C (second compound 10 µM, first compound 0.00316 µM) 111% | viability, T/C (second compound 10 µM, first compound 0.01 µM) 80.7% | viability, T/C [11] 102% | viability, T/C [12] 70.3%
> 0.1 µM: IC50 (second compound 0.0316 µM) | IC50 (second compound 0.1 µM) | IC50 (second compound 0.316 µM) | IC50 (second compound 1 µM) | IC50 (second compound 3.16 µM) | IC50 (second compound 10 µM)

COc1cc(C2c3cc4c(cc3C(OC3OC5COC(C)OC5C(O)C3O)C3COC(=O)C23)OCO4)cc(OC)c1O (centres undefined) + COC1C(OC(N)=O)C(O)C(Oc2ccc3c(O)c(NC(=O)c4ccc(O)c(CC=C(C)C)c4)c(=O)oc3c2C)OC1(C)C
> 10 µM: IC50 (second compound 0.0316 µM) | IC50 (second compound 0.1 µM) | IC50 (second compound 3.16 µM) | IC50 (second compound 10 µM)
9.29 µM: IC50 (second compound 0.316 µM)
inactive: viability, T/C [1] 95.7% | viability, T/C [2] 111% | viability, T/C (second compound 0.0316 µM, first compound 0.316 µM) 97.1% | viability, T/C (second compound 0.0316 µM, first compound 1 µM) 80% | viability, T/C (second compound 0.0316 µM, first compound 3.16 µM) 78.3% | viability, T/C (second compound 0.0316 µM, first compound 10 µM) 49.5% | viability, T/C [3] 75.8% | viability, T/C [4] 92.8% | viability, T/C (second compound 0.1 µM, first compound 0.316 µM) 102% | viability, T/C (second compound 0.1 µM, first compound 1 µM) 90.7% | viability, T/C (second compound 0.1 µM, first compound 3.16 µM) 67.9% | viability, T/C (second compound 0.1 µM, first compound 10 µM) 53.5% | viability, T/C [5] 101% | viability, T/C [6] 80.1% | viability, T/C (second compound 0.316 µM, first compound 0.316 µM) 85.3% | viability, T/C (second compound 0.316 µM, first compound 1 µM) 77% | viability, T/C (second compound 0.316 µM, first compound 3.16 µM) 73.8% | viability, T/C (second compound 0.316 µM, first compound 10 µM) 46% | viability, T/C [7] 89% | viability, T/C [8] 86.8% | viability, T/C (second compound 1 µM, first compound 0.316 µM) 86% | viability, T/C (second compound 1 µM, first compound 1 µM) 81.1% | viability, T/C (second compound 1 µM, first compound 3.16 µM) 77.3% | viability, T/C (second compound 1 µM, first compound 10 µM) 45% | viability, T/C [9] 76.5% | viability, T/C [10] 96.1% | viability, T/C (second compound 3.16 µM, first compound 0.316 µM) 97.2% | viability, T/C (second compound 3.16 µM, first compound 1 µM) 89.8% | viability, T/C (second compound 3.16 µM, first compound 3.16 µM) 70.1% | viability, T/C (second compound 3.16 µM, first compound 10 µM) 51.7% | viability, T/C [11] 87.4% | viability, T/C [12] 83.2% | viability, T/C (second compound 10 µM, first compound 0.316 µM) 118% | viability, T/C (second compound 10 µM, first compound 1 µM) 68.5% | viability, T/C (second compound 10 µM, first compound 3.16 µM) 70.3% | viability, T/C (second compound 10 µM, first compound 10 µM) 53%
8.39 µM: IC50 (second compound 1 µM)
